PubChem BioAssay (NCI)
Several values for one entry are separate records, joined by “and”; a condition that tells them apart may be missing. Equal values may be shown once.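 The compound was tested at five concentrations on cells cultured in 96-well plates, with a 48-hour exposure period. Abbreviation: GI50, concentration required for 50% inhibition of growth. Definition used: TGI = concentration required for complete inhibition of growth.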

Experiments:
Experiment in all cases: inhibition of tumour cell growth, NCI panel, 48 h
SF-539 CNS = tested on: SF-539 CNS
MCF7 breast = tested on: MCF7 breast
SF-268 CNS = tested on: SF-268 CNS
IGROV1 ovarian = tested on: IGROV1 ovarian
COLO 205 colon = tested on: COLO 205 colon
RPMI-8226 leukemia = tested on: RPMI-8226 leukemia
HL-60(TB) leukemia = tested on: HL-60(TB) leukemia
HCT-116 colon = tested on: HCT-116 colon
RXF 393 renal = tested on: RXF 393 renal
OVCAR-3 ovarian = tested on: OVCAR-3 ovarian

| SMILES | GI50 (SF-539 CNS) | TGI (SF-539 CNS) | GI50 (MCF7 breast) | TGI (MCF7 breast) | GI50 (SF-268 CNS) | TGI (SF-268 CNS) | GI50 (IGROV1 ovarian) | TGI (IGROV1 ovarian) | GI50 (COLO 205 colon) | TGI (COLO 205 colon) | GI50 (RPMI-8226 leukemia) | TGI (RPMI-8226 leukemia) | GI50 (HL-60(TB) leukemia) | TGI (HL-60(TB) leukemia) | GI50 (HCT-116 colon) | TGI (HCT-116 colon) | GI50 (RXF 393 renal) | TGI (RXF 393 renal) | GI50 (OVCAR-3 ovarian) | TGI (OVCAR-3 ovarian) |
| --- | --- | --- | --- | --- | --- | --- | --- | --- | --- | --- | --- | --- | --- | --- | --- | --- | --- | --- | --- | --- |
| CCN(CC)CCCNCc1cc(-c2ccccc2)nc2ccccc12 | 3.24 µM | 8.49 µM | 4.12 µM | 16.9 µM | 4.72 µM | > 100 µM | 23.1 µM | > 100 µM | 15.8 µM | 31.3 µM | 2.53 µM | 16.5 µM | 1.62 µM | 14.9 µM | 0.352 µM | 17.9 µM | 6.99 µM | 39.9 µM | 4.13 µM | > 100 µM |
| CC(=O)c1c(C)[nH]c(-c2nc3ccc(N4CCN(C)CC4)cc3[nH]2)c1-c1ccc(N(C)C)cc1 | 1.15 µM | 17.7 µM | 0.24 µM | 7.78 µM | 4.1 µM | 26.8 µM | 0.936 µM | 12.3 µM | 0.292 µM | 14 µM | 0.25 µM | 1.64 µM | 0.118 µM | 0.596 µM | 0.803 µM | 13.6 µM | 0.486 µM | 2.08 µM | 1.17 µM | 17 µM |
| Cc1nc2ccccc2c(/C=C/c2ccc(Cl)cc2)c1C(=O)/C=C/c1ccc(C(F)(F)F)cc1 | 0.24 µM | 0.636 µM | 0.303 µM | 1.55 µM | 0.872 µM | 2.78 µM | 0.282 µM | 1.56 µM | 1.32 µM | 3.25 µM | 0.269 µM | 0.681 µM | 0.36 µM | 1.38 µM | 0.192 µM | 0.652 µM | 0.322 µM | 0.988 µM | 0.292 µM | 0.82 µM |
| CC(C)=CCC/C(C)=C/CC/C(C)=C/CSc1ccccc1C(=O)O | 19.9 µM | 42.2 µM and 33.9 µM | 33.5 µM | 99.1 µM and 56 µM | 18.5 µM | 35.7 µM and 32.6 µM | 29.3 µM | 70.5 µM and 35.5 µM | 36.8 µM | > 100 µM and 48.4 µM | 25.2 µM | 73.1 µM and 81.4 µM | 18.6 µM | 41.4 µM and 67.1 µM |  | 56.7 µM and 30.4 µM | 22.2 µM | 52.3 µM and 56 µM |  | 33.8 µM and 30.9 µM |
| COCc1cc(C(=O)Nc2cc([C@H]3CC[C@@H](OC(=O)NC(C)C)C3)[nH]n2)n(C)n1 | 6.34 µM | 43.7 µM | 2.53 µM | > 100 µM | 12.1 µM | 50.5 µM | 4.74 µM | > 100 µM | 3.15 µM | 16.3 µM | 14.2 µM | 47 µM | 2.55 µM | 11.4 µM | 2.61 µM | 43 µM | 2.93 µM | 9.11 µM | 2.55 µM | 30.6 µM |
| COc1ccc2ccccc2c1C1NC(=O)c2ccccc2N1 (stereo not given) |  | 5.78 µM |  | 29.4 µM |  | > 100 µM |  | > 100 µM |  |  |  | 8.06 µM |  | 0.877 µM |  | 13.8 µM |  | > 23.6 µM |  | 1.92 µM |
| O=C(COc1cc(O)c2c(=O)cc(-c3ccccc3)oc2c1)Nc1ccccc1C(F)(F)F | 2.21 µM | 5.5 µM | 7.4 µM | > 100 µM | 4.94 µM | 26.1 µM | 3.61 µM | 15.9 µM | 8.04 µM | > 100 µM | 7.03 µM | > 100 µM | > 100 µM | > 100 µM | 1.83 µM | 4.06 µM | 2.21 µM | 6.34 µM | 2.12 µM | 4.12 µM |
| Cc1cc(N2CCOCC2)nc(N[C@@H]2CCC[C@H](Nc3ccnc4cc(Cl)ccc34)C2)n1 | 1.61 µM | 3.09 µM | 1.76 µM | 4.15 µM | 1.59 µM | 4.44 µM | 2.23 µM | 6.6 µM | 1.68 µM | 3.33 µM | 2.09 µM | 5.25 µM | 1.98 µM | 3.87 µM | 1.98 µM | 4.26 µM | 1.44 µM | 3.11 µM | 2.83 µM | 8.62 µM |
| C/C1=C/C(=O)O[C@@H]2C[C@@H](CC[C@H](C)/C=C\C=C\CC1)O[C@@](O)([C@@H]1CSC(=O)N1)C2 |  | 0.991 µM |  | > 10 µM |  | 1.38 µM |  | 0.547 µM |  | 0.36 µM |  | > 10 µM |  | > 10 µM |  | > 10 µM |  | 0.752 µM |  | 4.25 µM |
| C[As](C)SCC(COC(=O)C(Cl)c1ccccc1)OC(=O)C(Cl)c1ccccc1 (stereo not given) | 0.968 µM | 3.43 µM | 0.46 µM | 12.9 µM | 3.3 µM | 14.9 µM | 1.93 µM | > 42.6 µM | 1.43 µM |  | 0.299 µM | 1.37 µM | 0.418 µM |  | 0.439 µM | 2.67 µM | 0.641 µM | 15 µM | 0.179 µM | 0.474 µM |
| C=CC(=O)Nc1cc(C)ccc1Nc1nc(Nc2cc(OC)ncc2C)ncc1C(F)(F)F | 0.344 µM | 1.63 µM | 0.864 µM | > 32.8 µM | 1.28 µM | > 100 µM | 0.244 µM | 1.25 µM | 0.0555 µM | 1.48 µM | 0.634 µM | > 25.3 µM | 0.637 µM | 3.7 µM | 0.256 µM | 1.31 µM | 0.352 µM | 1.85 µM | 1.4 µM | > 100 µM |
| Oc1ccc(-c2nc3ccccc3s2)cc1CN(Cc1ccccn1)Cc1ccccn1 | 1.42 µM | 6.75 µM | 1.19 µM | 15.2 µM | 1 µM | 16 µM | 1.96 µM | 15.8 µM | 3.4 µM | 15.2 µM | 2.08 µM | 16.6 µM | 2.14 µM | 13.3 µM | 0.59 µM | 14 µM | 1.64 µM | 9.96 µM | 2.73 µM | 18.1 µM |
| Cc1nc(-c2cn3c(n2)-c2ccc(-c4cnn(C(C)(C)C(N)=O)c4)cc2OCC3)n(C(C)C)n1 | 0.654 µM and 0.493 µM | 6.13 µM and 5.83 µM | < 0.01 µM and 0.00991 µM | > 50.5 µM | 3.7 µM and 2.29 µM | > 100 µM | < 0.0106 µM and 0.00612 µM | 0.0829 µM and 0.0677 µM | 0.109 µM and 0.203 µM | 16.6 µM and > 10 µM | 5.9 µM and > 8.93 µM | 28.5 µM and > 10 µM | < 0.0202 µM and 0.00955 µM | 25.8 µM and > 10 µM | 1.2 µM and 0.399 µM | 23.4 µM and > 10 µM | 0.537 µM and 0.727 µM | 4.61 µM and > 7.26 µM | 0.876 µM and 0.582 µM | 16.6 µM and > 10 µM |
